Like-named read-outs stand apart in the source and are kept apart here.
Columns and labels:
[1] = In vitro injection of substrate and sodium permanganate solutions into a beaker, reaction temperature by thermocouple; format: physicochemical; details: for Average maximum temperature increase (° C.) Permanganate first / Average peak temperature (° C.) Permanganate first / Average maximum temperature increase (° C.) Simultaneous / Average peak temperature (° C.) Simultaneous / Average maximum temperature increase (° C.) Substrate first / Average peak temperature (° C.) Substrate first: substrate 1M/1 mL; for average maximum temperature: simultaneous injections, substrate 180 g/L, permanganate (1M, 1 mL)
Procedure: In vitro studies: All reagents were obtained from Sigma-Aldrich Chemical Co. (St. Louis, Mo.) unless otherwise noted. […] Exemplary reaction products of glycerol oxidation by permanganate include tartronic acid and glyceric acid (FIG. 8). Reaction temperature was measured by a thermocouple probe (type T MT-29/1; Physitemp Instruments, Clifton, N.J.) placed at the center of the beaker, with the tip submerged underneath the surface of the mixed solutions. Temperature recordings were made by a T-type thermocouple thermometer (Digi-Sense; Cole-Parmer, Vernon Hills, Ill.) at time intervals of 1 to 3 seconds from the onset of injections until the temperature dropped below 40° C. A series of different permanganate volumes (1, 2, and 3 mL) and concentrations (1 and 2M) were tested in order to study the effects of volume and concentration on temperature. Selected experiments were repeated with glucose, sucrose, maltodextrin (4-7 glucose unit average), and dextrin as substrates. The remaining substrates were different polysaccharides (starch, cellulose and glycogen) and polyvinyl alcohol. See, FIG. 9. All were used as 180 g/L (carbohydrates based on glucose) solutions and/or suspensions rather than expressing concentration in molarity due to their polymeric nature.

[2] = test system: breast cancer cell line MCF-7; test: MTT cell viability assay, MCF-7
Procedure: Cells were plated in 96-well plates for the MTT assays at a concentration of 3×10^5 cells per well overnight prior to performing the assays.
Cell viability assay: Cell viability assays were performed using as a substrate the MTT reagent 3-(4,5-Dimethylthiazol-2-yl)-2,5-diphenyltetrazolium bromide (Sigma-Aldrich, St. Louis, Mo.) at a concentration of 10 μg/100 μl. Growth medium was aspirated from the wells and cells were washed twice with 1×PBS. […] One hundred μl of MTT substrate was added to each well in a 96-well plate and plates were incubated for 1 hour at 37° C. Cells were then gently washed in 1×PBS and 100 μl stop solution (acidified phenol) was added to each well. Plates were incubated again at 37° C. for 30 minutes and the colorimetric changes in the cells were measured using a plate reader at 570 nm. Only the live viable cells are able to convert yellow colored MTT reagent into purple colored formazan.

HepG2 cells = details: Castañeda and Kinne 2000; cited from earlier work
[3] = test system: osteosarcoma cell line 143B; format: cell-based
HuH-7 cells [4] = test system: HuH-7 cells
143B cells = test: DNA fragmentation assay, 143B; format: cell-based, human
Procedure: (§1) Cell lysates were incubated at 37° C. for 3 hours, and the samples were centrifuged at 13,000 rpm for 30 minutes. Supernatants containing DNA were extracted with phenol-chloroform and precipitated with ethanol. Equal amounts of DNA were resolved on a 2% agarose gel containing ethidium bromide, and bands corresponding to nucleosomes were visualized under ultra violet light.

MCF-7 cells = test: DNA fragmentation assay, MCF-7; format: cell-based, human
Procedure: as §1

HuH-7 cells [5] = test: DNA fragmentation assay, HuH-7; format: cell-based, human; details: 1 M urea for 2 hours
Procedure: as §1

[6] = NaMnO4 (1M/1 mL), permanganate first
[7] = NaMnO4 (1M/1 mL), simultaneous injection
[8] = NaMnO4 (1M/1 mL), substrate first
[9] = NaMnO4 (1M/2 mL), permanganate first
[10] = NaMnO4 (1M/2 mL), simultaneous injection
[11] = NaMnO4 (1M/2 mL), substrate first
[12] = NaMnO4 (1M/3 mL), permanganate first
[13] = NaMnO4 (1M/3 mL), simultaneous injection
[14] = NaMnO4 (1M/3 mL), substrate first
[15] = NaMnO4 (2M/1 mL), permanganate first
[16] = NaMnO4 (2M/1 mL), simultaneous injection
[17] = NaMnO4 (2M/1 mL), substrate first
[18] = 3% ethanol, exposure for 2 hours

| Average maximum temperature increase (° C.) Permanganate first [1, 6] [°C] | Average peak temperature (° C.) Permanganate first [1, 6] [°C] | Average maximum temperature increase (° C.) Simultaneous [1, 7] [°C] | Average peak temperature (° C.) Simultaneous [1, 7] [°C] | Average maximum temperature increase (° C.) Substrate first [1, 8] [°C] | Average peak temperature (° C.) Substrate first [1, 8] [°C] | Average maximum temperature increase (° C.) Permanganate first [1, 9] [°C] | Average peak temperature (° C.) Permanganate first [1, 9] [°C] | Average maximum temperature increase (° C.) Simultaneous [1, 10] [°C] | Average peak temperature (° C.) Simultaneous [1, 10] [°C] | Average maximum temperature increase (° C.) Substrate first [1, 11] [°C] | Average peak temperature (° C.) Substrate first [1, 11] [°C] | Average maximum temperature increase (° C.) Permanganate first [1, 12] [°C] | Average peak temperature (° C.) Permanganate first [1, 12] [°C] | Average maximum temperature increase (° C.) Simultaneous [1, 13] [°C] | Average peak temperature (° C.) Simultaneous [1, 13] [°C] | Average maximum temperature increase (° C.) Substrate first [1, 14] [°C] | Average peak temperature (° C.) Substrate first [1, 14] [°C] | Average maximum temperature increase (° C.) Permanganate first [1, 15] [°C] | Average peak temperature (° C.) Permanganate first [1, 15] [°C] | Compound | other results |
| --- | --- | --- | --- | --- | --- | --- | --- | --- | --- | --- | --- | --- | --- | --- | --- | --- | --- | --- | --- | --- | --- |
| 37.6 | 59.3 | 41.4 | 63.9 | 48.4 | 71.1 | 48.5 | 70.3 | 66.3 | 89.1 | 64.4 | 86.7 | 55.3 | 77.9 | 66.6 | 90.6 | 67.5 | 90.3 | 75.4 | 97.0 | OCC(O)CO [Glycerol, glycerol] | Average maximum temperature increase (° C.) Simultaneous [1, 16]: 74.5 °C; Average peak temperature (° C.) Simultaneous [1, 16]: 97.4 °C; Average maximum temperature increase (° C.) Substrate first [1, 17]: 76.9 °C; Average peak temperature (° C.) Substrate first [1, 17]: 99.1 °C; average maximum temperature, permanganate first ([1]; volume of substrate (1M) raised to 2 mL, permanganate 1M, permanganate first): 54.1 °C; average maximum temperature, simultaneous ([1]; volume of substrate (1M) raised to 2 mL, permanganate 1M, simultaneous injection): 53.1 °C; average maximum temperature, substrate first ([1]; volume of substrate (1M) raised to 2 mL, permanganate 1M, substrate first): 56.7 °C |
| 24.9 | 46.4 | 33.5 | 56.8 | 37.1 | 58.9 | 42.1 | 64.9 | 51.0 | 73.6 | 60.0 | 82.1 | 51.5 | 74.6 | 66.9 | 90.1 | 63.0 | 85.1 | 76.7 | 100.0 | OC[C@H]1O[C@@](CO)(O[C@H]2O[C@H](CO)[C@@H](O)[C@H](O)[C@H]2O)[C@@H](O)[C@@H]1O [Sucrose, sucrose] | average maximum temperature, permanganate-first ([1]; concentration of the sucrose solution (1 mL) raised to 2M, permanganate-first): 100.0 °C; average maximum temperature, simultaneous ([1]; concentration of the sucrose solution (1 mL) raised to 2M, simultaneous injection): 100.2 °C; average maximum temperature, sucrose-first ([1]; concentration of the sucrose solution (1 mL) raised to 2M, sucrose-first): 99.8 °C; Average maximum temperature increase (° C.) Simultaneous [1, 16]: 77.0 °C; Average peak temperature (° C.) Simultaneous [1, 16]: 100.2 °C; Average maximum temperature increase (° C.) Substrate first [1, 17]: 77.7 °C; Average peak temperature (° C.) Substrate first [1, 17]: 99.8 °C; average temperature increase, permanganate-first ([1]; volume of sucrose solution increased to 2 mL, permanganate-first): 44.6 °C; average temperature increase, simultaneous ([1]; volume of sucrose solution increased to 2 mL, simultaneous injection): 45.9 °C; average temperature increase, sucrose-first ([1]; volume of sucrose solution increased to 2 mL, sucrose-first): 51.0 °C |
|  |  |  |  |  |  |  |  |  |  |  |  |  |  |  |  |  |  |  |  | CCO [ethanol] | cells died ([2]; 1% ethanol, 24 hour exposure): > 90%; cell death [2, 18]: > 90%; apoptosis (HepG2 cells): induces apoptosis; cells died ([3]; 1% ethanol, 24 hour exposure): > 90%; cell death [3, 18]: > 90%; cell death (HuH-7 cells [4]; 2% ethanol, 6 hours of exposure): 50%; cytotoxicity (HuH-7 cells [4]; 4% ethanol, 2 hours): lethal; cytotoxicity (HuH-7 cells [4]; ethanol 3% (v/v)): toxic; cytotoxicity (HuH-7 cells [4]; ethanol 5% (v/v)): toxic; apoptosis by DNA laddering (143B cells; 10% ethanol for 6 hours): A similar result; apoptosis by DNA laddering (MCF-7 cells; 10% ethanol for 6 hours): A similar result |
|  |  |  |  |  |  |  |  |  |  |  |  |  |  |  |  |  |  |  |  | NC(N)=O [urea] | apoptosis by DNA laddering (HuH-7 cells [5]): induced apoptosis; cells survived (HuH-7 cells [4]; 250 mM urea, 24 hours): 50%; cells survived (HuH-7 cells [4]; 750 mM urea, 6 hour exposure): about 50%; apoptosis by DNA laddering (143B cells; 1 M urea for 2 hours): induced apoptosis; apoptosis by DNA laddering (MCF-7 cells; 1 M urea for 2 hours): induced apoptosis |
|  |  |  |  |  |  |  |  |  |  |  |  |  |  |  |  |  |  |  |  | dextrin | average maximum temperature [1]: 51.1 °C |
|  |  |  |  |  |  |  |  |  |  |  |  |  |  |  |  |  |  |  |  | maltodextrin | average maximum temperature [1]: 42.5 °C |
